Measured values reported in patent US4293713A, “Novel 1,1,3,5-substituted biuret compound and a pharmaceutical composition containing the same” (priority 1979, dated 1981).
Read-outs that look alike come from different tables or passages of the source.

Legend:
[1] = tested on: ddy strain of male mice; assay: Acute toxicity (oral, 7 days observation); format: in vivo; details: oral, mice, 7 days
Procedure: (§1) Next, several tests for determining the pharmacological properties, in that acute toxicity, anti-pyretic activity, analgesic activity and anti-inflammatory activity of the present 1,1,3,5-substituted biuret compounds of the formula (1) were conducted and the test results are shown in Table (2). In the tests, each compounds to be tested was used as a suspension in 0.25% carboxymethylcellulose solution. Methods for testing are explained as follows:
The ddy strain of male mice (body weight, 20-25 g) were used as test animals. The mice were fasted overnight and the compound to be tested was administered orally. […] The lethal dose (mg/kg, body weight) of the test compound was determined in connection with the death number of mice/the number of mice tested. In Table 2, the values indicated with Δ marks are 50% lethal dose, LD50 (mg/kg, body weight).

[2] = tested on: ddy strain of male mice; assay: Analgesic activity, acetic acid-induced stretching method; format: in vivo, mouse (ddy strain; details: Mus musculus, read-out: Analgesic activity, acetic acid-induced stretching method, inhibitory ratio
Procedure: as §1
According to the method reported by Koster et al., [Fed. Proc., Vol. 18, pp. 412 (1959)], the ddy strain of male mice (body weight, 20-25 g) were used as test animals. The mice were fasted overnight, 100 mg/kg body weight of the test compound was administered orally, then 1 hour after the administration, 0.2 ml of 0.7% acetic acid solution was injected intraperitoneally. The acetic acid-induced stretching symptom of mouse was observed. Analgesic activity of the test compound was calculated as the inhibitory ratio (%). In Table 2, the values in Parentheses show the data obtained from the test by using the dosage other than 100 mg/kg body weight. Further, the values indicated with Δ marks show 50% effective dose, ED50 (mg/kg body weight).

[3] = tested on: Wistar strain of male rats; assay: Anti-pyretic activity (dry-yeast induced fever); format: in vivo, rat (Wistar strain; details: oral, up to 4 hours after administration, dose not given
Procedure: as §1
According to the method reported by Tanabe [Folia Pharmacologia Japonica, Vol. 73, pp. 803 (1977)], the Wistar strain of male rats (150-180 g body weight) were used as test animals. The rats were fasted overnight, and 1 ml/100 g (body weight) of 10% dry-yeast suspension were subcutaneously injected on the back of the rats. Five hours after the injection, the test compound was administered orally, then the body temperature of the rat was measured at time sequences. Anti-pyretic activity of the test compound was determined as the FI (febril index) by integrating pyrogenetic curve up to 4 hours after the administration of the test compound with time, and indicated as inhibitory ratio (%) shown by the following formula, [formula]

[4] = tested on: ddy strain of male mice; assay: Analgesic activity, Haffner method; format: in vivo, mouse (ddy strain; details: with threshold morphine hydrochloride s.c.
Procedure: as §1
According to the modified method reported by Fujimura et al., [Bulletin of the Institute for Chemical Research, Kyoto University, No. 25, pp. 36 (1951)], the ddy strain of male mice (body weight, 20-25 g) were used as test animals. The mice were fasted overnight, 100 mg/kg body weight of the test compound was administered orally, then 45 minutes after the administration, the threshold amount (1.5-2.5 mg/kg body weight) of morphine hydrochloride was injected subcutaneously. Then 1-hour pain reaction of the mouse caused by a clamp was observed. Analgesic activity of the test compound was calculated as the inhibitory ratio (%). In Table 2, the values in parentheses show the data obtained from the test by using the dosage other than 100 mg/kg body weight. Further, the values indicated with Δ marks show 50% effective dose, ED50 (mg/kg body weight).

| SMILES | Acute toxicity, death number of mice/number of mice tested ([1]; 2000 mg/kg) | inhibition in vivo at 60 mg/kg ([2]; 60 mg/kg oral, mice) [%] | Anti-pyretic activity, inhibitory ratio of febril index (FI) [3] [%] | Analgesic activity, Haffner method, inhibitory ratio ([4]; 100 mg/kg oral) [%] | Acute toxicity, death number of mice/number of mice tested ([1]; 1000 mg/kg) | inhibition in vivo at 100 mg/kg ([2]; po) [%] | inhibition in vivo at 100 mg/kg ([2]; 100 mg/kg oral, mice) [%] | Analgesic activity, Haffner method, inhibitory ratio ([4]; 200 mg/kg oral) [%] |
| --- | --- | --- | --- | --- | --- | --- | --- | --- |
| Cc1ccc(NC(=O)N(C)C(=O)N(C)C)cc1C [Compound No. 25, 1,1,3-Trimethyl-5-(3,4-dimethylphenyl)biuret] | 1/4 | 87.5 | 31 | – | – | – | – | – |
| CN(C)C(=O)N(C)C(=O)Nc1ccc(Cl)cc1Cl [compound 8, 1,1,3-Trimethyl-5-(2,4-dichlorophenyl)biruet] | 3/4 | – | 42 | 75 | 0/4 | 50 | – | – |
| CN(C)C(=O)N(C)C(=O)Nc1ccc(Cl)c(Cl)c1 [compound 10, 1,1,3-Trimethyl-5-(3,4-dichlorophenyl)biuret] | 3/4 | – | 43 | 62.5 | 1/4 | 50 | – | – |
| COc1ccc(NC(=O)N(C)C(=O)N(C)C)cc1OC [compound 18, 1,1,3-Trimethyl-5-(3,4-dimethoxyphenyl)biuret] | 4/4 | – | 18 | 62.5 | 0/4 | 75 | – | – |
| Cc1cccc(NC(=O)N(C)C(=O)N(C)C)c1C [compound 23, 1,1,3-Trimethyl-5-(2,3-dimethylphenyl)biuret] | 4/4 | – | 40 | 25 | 1/4 | – | 50 | – |
| Cc1c(Cl)cccc1NC(=O)N(C)C(=O)N(C)C [compound 26, 1,1,3-Trimethyl-5-(2-methyl-3-chlorophenyl)biuret] | 4/4 | – | 45 | 25 | 1/4 | 75 | – | – |
| CSc1ccc(NC(=O)N(C)C(=O)N(C)C)cc1 [compound 28, 1,1,3-Trimethyl-5-(4-methylthiophenyl)biuret] | 4/4 | – | – | – | 0/4 | 50 | – | – |
| CCCN(C(=O)Nc1ccccc1)C(=O)N(C)C [compound 31, 1,1-Dimethyl-3-n-propyl-5-phenylbiuret] | 0/4 | – | 12 | – | – | 37.5 | – | 62.5 |
| CCCCN(C(=O)Nc1ccccc1)C(=O)N(C)C [compound 32, 1,1-Dimethyl-3-n-butyl-5-phenylbiuret] | 3/4 | – | 18 | 31 | 0/4 | 37.5 | – | – |
| CCCCN(C)C(=O)N(C)C(=O)Nc1ccccc1 [compound 35, 1-n-Butyl-1,3-dimethyl-5-phenylbiuret] | 3/4 | – | 35 | 25 | 0/4 | 37.5 | – | – |
